A word on the Ki: it is a measure of affinity in units of concentration, obtained from inhibition or displacement. A high value points to weaker binding. What is called IC50 is the concentration that inhibits the measured activity by half.

Assay [1] has as its system induction of TAT by dexamethasone in HepG2 cells. In words: Hep G2 TAT assay (inhibition of dexamethasone-induced TAT). Format: cell-based, human. The conditions noted are these: challenge of 100 nM dexamethasone, IC50 converted to Ki by Cheng and Prusoff equation. The procedure: Glucocorticoid mediated activation of TAT occurs by transactivation of glucocorticoid response elements in the TAT promoter by glucocorticoid receptor-agonist complex. The following protocol describes an assay for measuring induction of TAT by dexamethasone in HepG2 cells (a human liver hepatocellular carcinoma cell line; ECACC, UK).
TAT activity was measured as outlined in the literature by A. Ah et al., J. Med. Chem., 2004, 47, 2441-2452.
HepG2 cells were cultured using MEME media supplemented with 10% (v/v) foetal bovine serum; 2 mM L-glutamine and 1% (v/v) NEAA at 37° C., 5%/95% (v/v) CO2/air. The HepG2 cells were counted and adjusted to yield a density of 0.125×10^6 cells/ml in RPMI 1640 without phenol red, 10% (v/v) charcoal stripped FBS, 2 mM L-glutamine and seeded at 25,000 cells/well in 200 μl into 96 well, sterile, tissue culture micro titre plates, and incubated at 37° C., 5% CO2 for 24 hours
Growth media was removed and replaced with assay media {RPMI 1640 without phenol red, 2 mM L-glutamine+10 μM forskolin}. Test compounds were screened against a challenge of 100 nM dexamethasone. Compounds were serially half log diluted in 100% (v/v) dimethylsulphoxide from a 10 mM stock.
Test compounds were pre-incubated with cells in micro-titre plates for 30 minutes at 37° C., 5/95 (v/v) CO2/air, before the addition of 100 nM dexamethasone and then subsequently for 20 hours to allow optimal TAT induction.
HepG2 cells were then lysed with 30 μl of cell lysis buffer containing a protease inhibitor cocktail for 15 minutes at 4° C. […] After 2 hours incubation at 37° C. the reaction was terminated by the addition of 15 μl of 10M aqueous potassium hydroxide solution, and the plates incubated for a further 30 minutes at 37° C. The TAT activity product was measured by absorbance at λ 340 nm.
[compound] and fitting the data to a 4 parameter logistic equation. IC50 values were converted to Ki (equilibrium dissociation constant) using the Cheng and Prusoff equation, assuming the antagonists were competitive inhibitors with respect to dexamethasone.

Assay [2] deals with glucocorticoid receptor (GR) recombinant ligand binding domain (LBD) (Homo sapiens (Human), UniProt P04150). The experiment in a line: GR binding fluorescence polarisation (FP) assay. The conditions noted are these: displacement of fluorescently tagged ligand. On the procedure:
Binding of test compounds to the glucocorticoid receptor (GR) is determined using a fluorescence polarisation (FP) assay utilising a recombinant ligand binding domain (LBD) of GR. The test compounds are assessed by their ability to displace a fluorescently tagged ligand and detection of the resulting decrease in fluorescence polarisation.
(Fluorescence polarisation rises when a labelled molecule tumbles more slowly, as on binding a larger partner.)

Sequence of glucocorticoid receptor (GR) recombinant ligand binding domain (LBD) (P04150 524-758): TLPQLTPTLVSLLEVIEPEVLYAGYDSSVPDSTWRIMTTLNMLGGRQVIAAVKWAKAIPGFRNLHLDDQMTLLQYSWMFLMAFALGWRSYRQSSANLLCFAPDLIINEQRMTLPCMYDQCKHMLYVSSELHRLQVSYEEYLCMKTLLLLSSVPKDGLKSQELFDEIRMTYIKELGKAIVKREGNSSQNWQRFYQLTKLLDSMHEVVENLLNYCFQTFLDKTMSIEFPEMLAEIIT

On to `Cc1cc2c(cnn2-c2ccc(F)cc2)cc1C1(Cc2ccccc2)CCN(C(=O)c2cnn(C)c2)C1` (stereo not drawn) [Example 19, (3-benzyl-3-(1-(4-fluorophenyl)-6-methyl-1H-indazol-5-yl)pyrrolidin-1-yl)(1-methyl-1H-pyrazol-4-yl)methanone], for which the affinity in assay [1] corresponds to a Ki of 142 nM. This counts as sub-micromolar.

For `CCCn1cc(S(=O)(=O)N2CCC(c3cc4cnn(-c5ccc(F)cc5)c4cc3C)C(C)C2)cn1` (stereo not drawn) [Example 26, 1-(4-fluorophenyl)-6-methyl-5-(3-methyl-1-((1-propyl-1H-pyrazol-4-yl)sulfonyl)piperidin-4-yl)-1H-indazole], affinity in assay [1] was put at a Ki of 50 nM.

With `CCCn1cc(S(=O)(=O)N2CCC3(c4cc5cnn(-c6ccc(F)cc6)c5cc4C)C(C2)C3(F)F)cn1` (stereo not drawn) [Example 27, 5-(7,7-difluoro-3-((1-propyl-1H-pyrazol-4-yl)sulfonyl)-3-azabicyclo[4.1.0]heptan-6-yl)-1-(4-fluorophenyl)-6-methyl-1H-indazole], in assay [1], the Ki came out at 759 nM.

`CCCn1cc(N(C)S(=O)(=O)C2CCN(c3cc4cnn(-c5ccc(F)cc5)c4cc3C)C2)cn1` (stereo not drawn) [Example 30, 1-(1-(4-fluorophenyl)-6-methyl-1H-indazol-5-yl)-N-methyl-N-(1-propyl-1H-pyrazol-4-yl)pyrrolidine-3-sulfonamide]: in assay [1], the Ki was determined as 206 nM.

The compound `COCCn1cc(S(=O)(=O)N2CCN(c3cc4cnn(-c5ccc(F)cc5)c4cc3C)CC23CC3)cn1` [Example 78] showed an inhibition constant (Ki) in assay [1] of 70 nM.

Regarding `Cc1cc2c(cnn2-c2ccc(F)cc2)cc1N1CCN(S(=O)(=O)c2cnn(C3CCOC3)c2)C2(CC2)C1` (stereo not drawn) [Example 79], the Ki in assay [1] is 84 nM.

Take `CCCn1cc(S(=O)(=O)N2CCN(c3cc(C)c4c(cnn4-c4ccc(F)cc4)c3)CC23CC3)cn1` [Example 80]: in assay [1], affinity was put at a Ki of 536 nM.

`CCCn1cc(S(=O)(=O)N2C[C@H](C)N(c3cc4cnn(-c5ccc(F)cc5)c4cc3C)C[C@@H]2C)cn1` [Example 81] yielded a Ki in assay [1] of 58 nM.

`CCCn1cc(S(=O)(=O)N2C[C@H](C)N(c3cc4cnn(-c5ccc(F)cc5)c4cc3C)C[C@H]2C)cn1` [Example 82] displayed a Ki in assay [1] of 65 nM.

`CCCn1cc(S(=O)(=O)N2CCN(c3cc4cnn(-c5ccc(F)cc5)c4cc3C)[C@@H](C)C2)cn1` [Example 87] had an inhibition constant Ki in assay [1] of 42 nM.

On to `Cc1cc2c(cnn2-c2ccc(F)cc2)cc1N1C[C@@H]2CN(S(=O)(=O)c3cnn(C)c3)C[C@@H]2C1` [Example 92], for which, in assay [1], the Ki came to 495 nM.

With `CCCn1cc(S(=O)(=O)N2C[C@H]3CN(c4cc5cnn(-c6ccc(F)cc6)c5cc4C)C[C@H]3C2)cn1` [Example 93], the Ki in assay [1] was 216 nM.

In assay [1], `CCCn1cc(S(=O)(=O)N(C)[C@H]2CCN(c3cc4cnn(-c5ccc(F)cc5)c4cc3OC)C2)cn1` [Example 118] came in with a Ki of 1640 nM.

`CCCn1cc(S(=O)(=O)N(C)C2(C)CCN(c3cc4cnn(-c5ccc(F)cc5)c4cc3C)C2)cn1` (stereo not drawn) [Example 119]: the Ki in assay [1] came out at 251 nM.

For the compound `CCCn1cc(S(=O)(=O)N2CC=C(c3cc4cnn(-c5ccc(F)cc5)c4cc3C)CC2)cn1` [Example 139], in assay [2], the IC50 amounted to 218 nM.

In assay [1], `CCCn1cc(S(=O)(=O)N2CCC(c3cc4cnn(-c5ccc(F)cc5)c4cc3Cl)CC2)cn1` [Example 140] gave a Ki of 50 nM.

In assay [1], `CCCn1cc(S(=O)(=O)N2CC=C(c3cc4cnn(-c5cccc(C(=O)NC6CCOC6)c5)c4cc3C)CC2)cn1` (stereo not drawn) [Example 145] displayed a Ki of 208 nM.

For `Cc1cc2c(cnn2-c2cccc(C(=O)NC3CCOC3)c2)cc1C1=CCN(S(C)(=O)=O)CC1` (stereo not drawn) [Example 146], the Ki in assay [1] was found to be 942 nM.

Consider `CS(=O)(=O)N1CCC(Cc2ccccc2)(c2ccc3c(cnn3-c3ccc(F)cc3)c2)C1` (stereo not drawn) [Example 157], for which the Ki in assay [1] was determined as 257 nM.

Consider `Cn1cc(S(=O)(=O)N2CCC(Cc3ccccc3)(c3ccc4c(cnn4-c4ccc(F)cc4)c3)C2)cn1` (stereo not drawn) [Example 158], for which the Ki in assay [1] turned out to be 161 nM.

As to `CCCn1cc(S(=O)(=O)N2CCC(Cc3ccccc3)(c3ccc4c(cnn4-c4ccc(F)cc4)c3)C2)cn1` (stereo not drawn) [Example 159], in assay [1], the Ki turned out to be 101 nM.

The compound `Cc1cc2c(cnn2-c2ccc(F)cc2)cc1C1(Cc2cncs2)CCN(S(=O)(=O)c2cnn(C)c2)C1` (stereo not drawn) [Example 179] returned a Ki in assay [1] of 331 nM.

Regarding `Cc1cc2c(cnn2-c2ccc(F)cc2)cc1C1(Cc2cncs2)CCN(S(C)(=O)=O)C1` (stereo not drawn) [Example 180], the Ki in assay [1] is 809 nM. Against the preceding compound, the Ki is about 2.4-fold higher.

Compound `CS(=O)(=O)N1CCC(Cc2ccccc2)(c2cc3cnn(-c4ccc(F)cc4)c3cc2F)C1` (stereo not drawn) [Example 181] displayed a Ki in assay [1] of 165 nM.

In the case of `Cc1cc2c(cnn2-c2ccc(F)cc2)cc1C1(Cc2ccc3c(c2)nnn3C)CCN(S(C)(=O)=O)C1` (stereo not drawn) [Example 183], in assay [1], affinity was put at a Ki of 182 nM.

As to `C#CCC1(c2cc3cnn(-c4ccc(F)cc4)c3cc2C)CCN(S(C)(=O)=O)C1` (stereo not drawn) [Example 184], the affinity in assay [1] corresponds to a Ki of 252 nM.

In assay [1], `C#CCC1(c2cc3cnn(-c4ccc(F)cc4)c3cc2C)CCN(S(=O)(=O)c2cnn(C)c2)C1` (stereo not drawn) [Example 185] gave a Ki of 164 nM.

Compound `C#CCC1(c2cc3cnn(-c4ccc(F)cc4)c3cc2C)CCN(S(=O)(=O)c2cnn(CCC)c2)C1` (stereo not drawn) [Example 186] gave a Ki in assay [1] of 37 nM.

Compound `Cc1cc2c(cnn2-c2ccc(F)cc2)cc1C1(Cc2nccs2)CCN(S(C)(=O)=O)C1` (stereo not drawn) [Example 187] gave a Ki in assay [1] of 199 nM.

Compound `Cc1cc2c(cnn2-c2ccc(F)cc2)cc1C1(Cc2nccs2)CCN(S(=O)(=O)c2cnn(C)c2)C1` (stereo not drawn) [Example 188] gave a Ki in assay [1] of 173 nM.

For the compound `Cc1cc2c(cnn2-c2ccc(F)cc2)cc1C1(Cc2ccccc2)CCN(C(=O)c2ccnnc2)C1` (stereo not drawn) [Example 195, (3-benzyl-3-(1-(4-fluorophenyl)-6-methyl-1H-indazol-5-yl)pyrrolidin-1-yl)(pyridazin-4-yl)methanone], in assay [1], the inhibition constant (Ki) was found to be 70 nM.

Regarding `Cc1cc2c(cnn2-c2ccc(F)cc2)cc1C1(Cc2ccccc2)CCN(C(=O)c2cncnc2)C1` (stereo not drawn) [Example 196, (3-benzyl-3-(1-(4-fluorophenyl)-6-methyl-1H-indazol-5-yl)pyrrolidin-1-yl)(pyrimidin-5-yl)methanone], affinity in assay [1] was put at a Ki of 79 nM.

In assay [1], `Cc1cc(CC(=O)N2CCC(Cc3ccccc3)(c3cc4cnn(-c5ccc(F)cc5)c4cc3C)C2)on1` (stereo not drawn) [Example 197, 1-(3-benzyl-3-(1-(4-fluorophenyl)-6-methyl-1H-indazol-5-yl)pyrrolidin-1-yl)-2-(3-methylisoxazol-5-yl)ethan-1-one] displayed a Ki of 65 nM.

As for `Cc1cc2c(cnn2-c2ccc(F)cc2)cc1C1(Cc2ccccc2)CCN(C(=O)Cc2noc3ccccc23)C1` (stereo not drawn) [Example 198, 2-(benzo[d]isoxazol-3-yl)-1-(3-benzyl-3-(1-(4-fluorophenyl)-6-methyl-1H-indazol-5-yl)pyrrolidin-1-yl)ethan-1-one], in assay [1], the affinity corresponds to a Ki of 30 nM.

Regarding `COc1cc(OCCCC(=O)N2CCC(Cc3ccccc3)(c3cc4cnn(-c5ccc(F)cc5)c4cc3C)C2)ccc1CO` (stereo not drawn) [Example 199, 1-(3-benzyl-3-(1-(4-fluorophenyl)-6-methyl-1H-indazol-5-yl)pyrrolidin-1-yl)-4-(4-(hydroxymethyl)-3-methoxyphenoxy)butan-1-one], affinity in assay [1] was put at a Ki of 33 nM.

In the case of `Cc1cc2c(cnn2-c2ccc(F)cc2)cc1C1(Cc2ccccc2)CCN(C(=O)c2cc(CO)ccn2)C1` (stereo not drawn) [Example 200, (3-benzyl-3-(1-(4-fluorophenyl)-6-methyl-1H-indazol-5-yl)pyrrolidin-1-yl)(4-(hydroxymethyl)pyridin-2-yl)methanone], in assay [1], the Ki came out at 59 nM.

In assay [1], `COc1ccccc1-c1noc(CCC(=O)N2CCC(Cc3ccccc3)(c3cc4cnn(-c5ccc(F)cc5)c4cc3C)C2)n1` (stereo not drawn) [Example 201, 1-(3-benzyl-3-(1-(4-fluorophenyl)-6-methyl-1H-indazol-5-yl)pyrrolidin-1-yl)-3-(3-(2-methoxyphenyl)-1,2,4-oxadiazol-5-yl)propan-1-one] displayed a Ki of 48 nM.

As to `CCCn1cc(S(=O)(=O)N2CCN(c3cc4cnn(-c5ccc(F)cc5)c4cc3C)C(=O)C2)cn1` [Example 209, 1-(1-(4-fluorophenyl)-6-methyl-1H-indazol-5-yl)-4-((1-propyl-1H-pyrazol-4-yl)sulfonyl)piperazin-2-one], the IC50 in assay [2] worked out at 3900 nM.

Take `Cc1cc2c(cnn2-c2ccc(F)cc2)cc1C1(COCc2ccccc2)CCN(S(=O)(=O)c2cnn(C)c2)C1` (stereo not drawn) [Example 341, 5-(3-((benzyloxy)methyl)-1-((1-methyl-1H-pyrazol-4-yl)sulfonyl)pyrrolidin-3-yl)-1-(4-fluorophenyl)-6-methyl-1H-indazole]: in assay [2], the IC50 was determined as 390 nM.

The record behind these values is patent publication US11787780B2 (CORCEPT THERAPEUTICS INCORPORATED, priority 2020, dated 2023).
